In ChEMBL document CHEMBL1141519, “Pyrogallol and its analogs can antagonize bacterial quorum sensing in Vibrio harveyi” (Bioorg Med Chem Lett, 2008):
The source made the active and inactive calls. The calls are words filed in the database; no cut-off is given here.

Legend:
[1] = tested on: Vibrio harveyi; assay: Growth inhibition of Vibrio harveyi assessed as time required to double bacterial growth relative to control; assay type: functional, organism-based
[2] = molecular target: Autoinducer 2-binding periplasmic protein LuxP (Vibrio harveyi, UniProt P54300); assay: Antagonist activity at LuxP receptor in Vibrio harveyi MM32 assessed as inhibition of autoinducer-2-mediated quorum sensing after 3 to 4 hrs; assay type: functional
[3] = tested on: Vibrio harveyi; assay: Growth inhibition of Vibrio harveyi assessed as time required to double bacterial growth at 20 uM; assay type: functional

Sequence of Autoinducer 2-binding periplasmic protein LuxP (P54300 whole entry): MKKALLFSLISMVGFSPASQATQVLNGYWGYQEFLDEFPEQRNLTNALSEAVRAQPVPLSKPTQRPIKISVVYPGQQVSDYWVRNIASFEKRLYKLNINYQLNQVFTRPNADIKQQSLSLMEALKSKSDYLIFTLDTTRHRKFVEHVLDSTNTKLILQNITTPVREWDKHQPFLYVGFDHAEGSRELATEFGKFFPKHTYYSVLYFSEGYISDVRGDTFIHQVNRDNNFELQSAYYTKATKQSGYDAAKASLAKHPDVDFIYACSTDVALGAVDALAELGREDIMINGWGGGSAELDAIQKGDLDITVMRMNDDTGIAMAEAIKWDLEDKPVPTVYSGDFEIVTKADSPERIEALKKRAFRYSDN

SMILES	Activity [1]	IC50 [2]	Time [3]
CCOC(=O)c1oc(C(=O)OCC)c(O)c1O	inactive	–	–
CC(=O)c1ccc(O)c(O)c1O [GALLACETOPHENONE]	inactive	21 µM	–
NCCc1cc(O)c(O)c(O)c1	–	22 µM	–
O[C@@H]1CCC[C@@H]1O	inactive	–	–
O=Cc1cc(O)c(O)c(O)c1	inactive	12 µM	–
O=C(c1ccccc1)c1ccc(O)c(O)c1O	inactive	4 µM	–
Oc1cccnc1O	inactive	–	–
Oc1cccc(O)c1O [PYROGALLOL]	–	2 µM	82 min
O=c1ccc2ccc(O)c(O)c2o1 [DAPHNETIN]	inactive	12 µM	–
Oc1ccccc1O [CATECHOL]	inactive	59 µM	–
O=C(O)c1cc(O)c(O)c(O)c1 [GALLIC ACID]	inactive	50 µM	–
O=C(O)c1ccc(O)c(O)c1O	inactive	61 µM	–
N#CC(C#N)=Cc1cc(O)c(O)c(O)c1	inactive	–	–
O=Cc1ccc(O)c(O)c1O	inactive	4 µM	–
